The target of one test is T1, 5-HT2 receptors (Rattus norvegicus, UniProt P14842).
T1 construct: from tissue
The experiment in a line: Affinity to 5-HT2 receptors (3H-ketanserin binding). The settings on record: 3H-ketanserin as ligand. The method, then: Test 1. Affinity to 5-HT2 receptors
The binding assay is carried out essentially as described by Leysen et al. (Mol. Pharmacol. 21,301-14, 1982) using ^3 H-ketanserin as ligand.

Another test has as its target T2, D2 -receptors (Rattus norvegicus, UniProt P61169).
T2 construct: from tissue
In words: Affinity to D2-receptors (3H-spiroperidol binding). Conditions: 3H-spiroperidol as ligand. The method, then: Test 2 Affinity to D2 -receptors.
The binding assay is carried out essentially as described by Leysen et al. (Mol. Pharmacol. 21,301-14, 1982) using ^3 H-spiroperidol as ligand.

Each structure is given as a SMILES string. Counter-ions that a name gives are not always drawn.

T2 sequence (P61169 whole entry): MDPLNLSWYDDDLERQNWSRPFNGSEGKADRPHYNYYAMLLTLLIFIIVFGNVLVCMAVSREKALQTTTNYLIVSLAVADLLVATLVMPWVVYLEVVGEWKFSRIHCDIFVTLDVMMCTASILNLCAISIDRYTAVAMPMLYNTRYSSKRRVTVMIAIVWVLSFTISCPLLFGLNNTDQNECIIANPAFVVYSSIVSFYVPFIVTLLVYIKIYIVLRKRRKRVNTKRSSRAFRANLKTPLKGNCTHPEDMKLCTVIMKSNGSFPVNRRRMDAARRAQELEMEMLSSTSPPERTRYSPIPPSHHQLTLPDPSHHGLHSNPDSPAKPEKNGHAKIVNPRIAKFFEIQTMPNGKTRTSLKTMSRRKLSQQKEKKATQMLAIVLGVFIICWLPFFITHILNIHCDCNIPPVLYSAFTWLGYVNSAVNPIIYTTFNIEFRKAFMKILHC
T1 sequence (P14842 whole entry): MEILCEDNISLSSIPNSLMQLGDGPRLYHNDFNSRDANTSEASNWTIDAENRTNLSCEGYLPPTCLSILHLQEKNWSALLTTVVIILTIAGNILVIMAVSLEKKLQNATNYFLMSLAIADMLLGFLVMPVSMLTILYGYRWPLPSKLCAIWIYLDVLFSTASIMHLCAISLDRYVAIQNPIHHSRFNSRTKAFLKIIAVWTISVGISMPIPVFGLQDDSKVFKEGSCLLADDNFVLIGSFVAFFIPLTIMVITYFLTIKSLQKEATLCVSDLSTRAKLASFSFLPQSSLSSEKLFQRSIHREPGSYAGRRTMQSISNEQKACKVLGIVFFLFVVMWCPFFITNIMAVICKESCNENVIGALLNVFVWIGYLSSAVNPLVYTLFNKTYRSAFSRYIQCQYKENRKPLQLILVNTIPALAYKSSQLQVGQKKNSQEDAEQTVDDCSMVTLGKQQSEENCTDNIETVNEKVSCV

As to `CCNC(=O)N1CCN(CCOC(c2ccc(F)cc2)c2ccc(F)cc2)CC1` [3:1, 4-[2-[(4,4'Difluorobenzhydryl)oxy]-ethyl]-N-ethyl-1-piperazinecarboxamide hydrochloride], the Ki at 5-HT2 receptors is 60 nM; on D2 -receptors, over 10000 nM.
The matching figures for `CNC(=S)N1CCN(CCOC(c2ccc(F)cc2)c2ccc(F)cc2)CC1` [3:4, 4-[2-[(4,4'Difluorobenzhydryl)oxy]-ethyl]-N-methyl-1-piperazinethiocarboxamide hydrochloride]: 20 nM and 1600 nM.
The matching figures for `O=C(N1CCCC1)N1CCN(CCOC(c2ccc(F)cc2)c2ccc(F)cc2)CC1` [6:2, 1-[2-[(4,4'-Difluorobenzhydryl)oxy]ethyl]-4-(pyrrolidino-carbonyl)piperazine hydrochloride]: 15 nM and 1780 nM.
In the case of `CCNC(=O)N1CCN(CCCC(c2ccc(F)cc2)c2ccc(F)cc2)CC1` [Amperozide, reference compound], the Ki stood at 17 nM on 5-HT2 receptors and 540 nM at D2 -receptors.

For the origin of these results see patent US5574031A, “Piperazine carboxamides” (priority 1992, dated 1996).
